From ChEMBL document CHEMBL3885881, “DrugMatrix”

Species on record: Rattus norvegicus
Assay: DrugMatrix - Regimen: Daily Repeat
Type: toxicity, organism-based, Sprague-Dawley
Design: regimen Daily Repeat, gender Male, age 6-8 weeks
Conditions: in vivo, po, route oral GAVAGE, vehicle .5 % CMC; for ABSOLUTE BASOPHIL / ABSOLUTE EOSINOPHIL / ABSOLUTE LYMPHOCYTE / ABSOLUTE MONOCYTE / ABSOLUTE SEGMENTED NEUTROPHIL / BASOPHIL / EOSINOPHIL / ERYTHROCYTE COUNT / HEMATOCRIT / HEMOGLOBIN / LEUKOCYTE COUNT / LYMPHOCYTE / MEAN CORPUSCULAR HEMOGLOBIN / MEAN CORPUSCULAR HEMOGLOBIN CONCENTRATION / MEAN CORPUSCULAR VOLUME / MONOCYTE / NEUTROPHIL / NUCLEATED RED BLOOD CELLS / PLATELET COUNT: tissue Blood; for ALANINE AMINOTRANSFERASE / ALBUMIN / ALKALINE PHOSPHATASE / ASPARTATE AMINOTRANSFERASE / BLOOD UREA NITROGEN / CARBON DIOXIDE / CHLORIDE / CHOLESTEROL / CREATINE PHOSPHOKINASE / CREATININE / GLUCOSE / LACTATE DEHYDROGENASE / LIPASE / PHOSPHORUS / POTASSIUM / SODIUM / TOTAL BILIRUBIN / TOTAL PROTEIN / URIC ACID: tissue Plasma
[1] = 3 mg/kg, 120 h, dose level Low, time 5 day
[2] = 17 mg/kg, 72 h, dose level High, time 3 day
[3] = 17 mg/kg, 120 h, dose level High, time 5 day

COc1nc(C)nc(Cl)c1N=C1NCCN1 [MOXONIDINE]
ABSOLUTE BASOPHIL [1]: 0 CELLS/uL | ABSOLUTE EOSINOPHIL [1]: 0 CELLS/uL | ABSOLUTE LYMPHOCYTE [1]: 12936.33 CELLS/uL | ABSOLUTE MONOCYTE [1]: 47.33 CELLS/uL | ABSOLUTE SEGMENTED NEUTROPHIL [1]: 1849.67 CELLS/uL | BASOPHIL [1]: 0% | EOSINOPHIL [1]: 0% | ERYTHROCYTE COUNT [1]: 5.72 x10E6/uL | HEMATOCRIT [1]: 36.07% | HEMOGLOBIN [1]: 14.37 G/DL | LEUKOCYTE COUNT [1]: 14.83 x10E3/uL | LYMPHOCYTE [1]: 87% | MEAN CORPUSCULAR HEMOGLOBIN [1]: 25.13 pg | MEAN CORPUSCULAR HEMOGLOBIN CONCENTRATION [1]: 39.8 G/DL | MEAN CORPUSCULAR VOLUME [1]: 63.1 fL | MONOCYTE [1]: 0.33% | NEUTROPHIL [1]: 12.67% | NUCLEATED RED BLOOD CELLS [1]: 0.33 /100WBC | PLATELET COUNT [1]: 943.67 x10E3/uL | ALANINE AMINOTRANSFERASE [1]: 44.67 u/L | ALBUMIN [1]: 4.13 G/DL | ALKALINE PHOSPHATASE [1]: 346 u/L | ASPARTATE AMINOTRANSFERASE [1]: 83.67 u/L | BLOOD UREA NITROGEN [1]: 17.67 mg/dL | CARBON DIOXIDE [1]: 29.33 mmol/L | CHLORIDE [1]: 98 MEQ/L | CHOLESTEROL [1]: 69.67 mg/dL | CREATINE PHOSPHOKINASE [1]: 484.67 u/L | CREATININE [1]: 0.19 mg/dL | GLUCOSE [1]: 147 mg/dL | LACTATE DEHYDROGENASE [1]: 166.67 u/L | LIPASE [1]: 10 u/L | PHOSPHORUS [1]: 13.4 mg/dL | POTASSIUM [1]: 6.24 MEQ/L | SODIUM [1]: 145.27 MEQ/L | TOTAL BILIRUBIN [1]: 0.2 mg/dL | TOTAL PROTEIN [1]: 6.03 G/DL | URIC ACID [1]: 1.57 mg/dL | ABSOLUTE BASOPHIL [2]: 0 CELLS/uL | ABSOLUTE EOSINOPHIL [2]: 110.67 CELLS/uL | ABSOLUTE LYMPHOCYTE [2]: 13070 CELLS/uL | ABSOLUTE MONOCYTE [2]: 298.67 CELLS/uL | ABSOLUTE SEGMENTED NEUTROPHIL [2]: 1454 CELLS/uL | BASOPHIL [2]: 0% | EOSINOPHIL [2]: 0.67% | ERYTHROCYTE COUNT [2]: 6.02 x10E6/uL | HEMATOCRIT [2]: 36.53% | HEMOGLOBIN [2]: 14.5 G/DL | LEUKOCYTE COUNT [2]: 14.93 x10E3/uL | LYMPHOCYTE [2]: 87.33% | MEAN CORPUSCULAR HEMOGLOBIN [2]: 24.07 pg | MEAN CORPUSCULAR HEMOGLOBIN CONCENTRATION [2]: 39.67 G/DL | MEAN CORPUSCULAR VOLUME [2]: 60.63 fL | MONOCYTE [2]: 2% | NEUTROPHIL [2]: 10% | NUCLEATED RED BLOOD CELLS [2]: 0 /100WBC | PLATELET COUNT [2]: 1171.33 x10E3/uL | ALANINE AMINOTRANSFERASE [2]: 46.67 u/L | ALBUMIN [2]: 3.9 G/DL | ALKALINE PHOSPHATASE [2]: 274 u/L | ASPARTATE AMINOTRANSFERASE [2]: 131.67 u/L | BLOOD UREA NITROGEN [2]: 17.67 mg/dL | CARBON DIOXIDE [2]: 23.67 mmol/L | CHLORIDE [2]: 104 MEQ/L | CHOLESTEROL [2]: 63 mg/dL | CREATINE PHOSPHOKINASE [2]: 1708.67 u/L | CREATININE [2]: 0.17 mg/dL | GLUCOSE [2]: 146 mg/dL | LACTATE DEHYDROGENASE [2]: 536.33 u/L | LIPASE [2]: 8.67 u/L | PHOSPHORUS [2]: 9.2 mg/dL | POTASSIUM [2]: 5.68 MEQ/L | SODIUM [2]: 142.1 MEQ/L | TOTAL BILIRUBIN [2]: 0.17 mg/dL | TOTAL PROTEIN [2]: 5.43 G/DL | URIC ACID [2]: 1.53 mg/dL | ABSOLUTE BASOPHIL [3]: 0 CELLS/uL | ABSOLUTE EOSINOPHIL [3]: 74 CELLS/uL | ABSOLUTE LYMPHOCYTE [3]: 15545.33 CELLS/uL | ABSOLUTE MONOCYTE [3]: 52.33 CELLS/uL | ABSOLUTE SEGMENTED NEUTROPHIL [3]: 1961.67 CELLS/uL | BASOPHIL [3]: 0% | EOSINOPHIL [3]: 0.33% | ERYTHROCYTE COUNT [3]: 5.87 x10E6/uL | HEMATOCRIT [3]: 34.5% | HEMOGLOBIN [3]: 13.8 G/DL | LEUKOCYTE COUNT [3]: 17.63 x10E3/uL | LYMPHOCYTE [3]: 88.67% | MEAN CORPUSCULAR HEMOGLOBIN [3]: 23.5 pg | MEAN CORPUSCULAR HEMOGLOBIN CONCENTRATION [3]: 40 G/DL | MEAN CORPUSCULAR VOLUME [3]: 58.73 fL | MONOCYTE [3]: 0.33% | NEUTROPHIL [3]: 10.67% | NUCLEATED RED BLOOD CELLS [3]: 0.33 /100WBC | PLATELET COUNT [3]: 1240.33 x10E3/uL | ALANINE AMINOTRANSFERASE [3]: 48 u/L | ALBUMIN [3]: 3.97 G/DL | ALKALINE PHOSPHATASE [3]: 270.33 u/L | ASPARTATE AMINOTRANSFERASE [3]: 91.33 u/L | BLOOD UREA NITROGEN [3]: 23 mg/dL | CARBON DIOXIDE [3]: 25 mmol/L | CHLORIDE [3]: 104.67 MEQ/L | CHOLESTEROL [3]: 70.33 mg/dL | CREATINE PHOSPHOKINASE [3]: 333.33 u/L | CREATININE [3]: 0.21 mg/dL | GLUCOSE [3]: 128 mg/dL | LACTATE DEHYDROGENASE [3]: 169 u/L | LIPASE [3]: 9.67 u/L | PHOSPHORUS [3]: 10.3 mg/dL | POTASSIUM [3]: 5.89 MEQ/L | SODIUM [3]: 144.27 MEQ/L | TOTAL BILIRUBIN [3]: 0.17 mg/dL | TOTAL PROTEIN [3]: 5.67 G/DL | URIC ACID [3]: 1.43 mg/dL
